Columns and labels:
dog [1] = details: Subchronic oral toxicity in nonrodent, beagle, Feed, dose end: 13 week, group: systemic, systemic / organ weight / liver / absolute + systemic / organ weight / liver / relative to body weight + systemic / pathology microscopic / …
rabbit = details: Prenatal developmental toxicity study, himalayan, Oral, Gavage/Intubation, dose end: 18 GD
dog [2] = details: Chronic toxicity; beagle; Oral; Feed; dose end: 52 week; group: systemic; systemic / clinical chemistry / albumin / albumin + systemic / clinical chemistry / triglycerides / triglycerides + systemic / pathology …
mouse [3] = details: Carcinogenicity, other, Oral, Feed, dose end: 26 month, group: systemic
mouse [4] = details: Carcinogenicity, b6c3f1, Oral, Feed, dose end: 24 month, group: systemic
rat [5] = details: Subchronic oral toxicity in rodents, wistar, Feed, dose end: 90 day, group: systemic
rat [6] = details: Combined chronic toxicity/carcinogenicity; wistar; Oral; Feed; dose end: 24 month; group: systemic; systemic / in life observation / body weight / body weight + systemic / in life observation / body weight / body weight gain + systemic / …
rat [7] = details: Prenatal developmental toxicity study, wistar, Dermal, Topical, dose end: 15 GD
rat [8] = details: Prenatal developmental toxicity study, wistar, Oral, Gavage/Intubation, dose end: 15 GD
[9] = group: developmental, developmental / developmental malformation / bone / [other] + developmental / developmental malformation / bone / absent + developmental / …
[10] = group: maternal, systemic / in life observation / body weight / body weight gain + systemic / in life observation / clinical signs / anal prolapse + systemic…
[11] = systemic / pathology gross / skin / desiccation + systemic / pathology microscopic / ear / hyperkeratosis + systemic / pathology microscopic…
[12] = systemic / pathology microscopic / adrenal gland / hyperplasia + systemic / clinical chemistry / bilirubin / total bilirubin
[13] = systemic / clinical chemistry / cytochrome p450, nos / cytochrome p450, nos + systemic / pathology microscopic / esophagus / hyperkeratosis…
[14] = group: developmental, developmental / developmental malformation / bone / incomplete ossification + developmental / developmental malformation / bone / unossified
[15] = group: maternal, systemic / in life observation / clinical signs / erythema + systemic / pathology gross / skin / [other]
[16] = group: maternal, systemic / in life observation / clinical signs / erythema + systemic / pathology gross / skin / [other] + systemic / pathology gross / skin…
[17] = group: developmental, developmental / developmental malformation / bone / incomplete ossification + developmental / developmental malformation / bone / unossified…
[18] = group: maternal, systemic / in life observation / body weight / body weight + systemic / in life observation / body weight / body weight gain + systemic / in…

**Q.** Which results are given for CCCN(CC)CC1COC2(CCC(C(C)(C)C)CC2)O1 (stereo not drawn) [Spiroxamine]?
**A.** LEL (dog [1]): 20 mg/kg/day; LOAEL (dog [1]): 20 mg/kg/day; NEL (dog [1]): 0.66 mg/kg/day; NOAEL (dog [1]): 0.66 mg/kg/day; LEL (rabbit; [9]): 80 mg/kg/day; LOAEL (rabbit; [9]): 80 mg/kg/day; NEL (rabbit; [9]): 20 mg/kg/day; NOAEL (rabbit; [9]): 20 mg/kg/day; LEL (rabbit; [10]): 80 mg/kg/day; LOAEL (rabbit; [10]): 80 mg/kg/day; NEL (rabbit; [10]): 20 mg/kg/day; NOAEL (rabbit; [10]): 20 mg/kg/day; LEL (dog [2]): 25.8 mg/kg/day; LOAEL (dog [2]): 25.8 mg/kg/day; NEL (dog [2]): 2.48 mg/kg/day; NOAEL (dog [2]): 2.48 mg/kg/day; LOAEL (mouse [3]; [11]): 59.3 mg/kg/day; NEL (mouse [3]; [11]): 4.5 mg/kg/day; NOAEL (mouse [3]; [11]): 36.7 mg/kg/day; LEL (mouse [3]; systemic / pathology microscopic / esophagus / acanthosis + systemic / pathology microscopic / esophagus / hyperkeratosis + systemic / …): 36.7 mg/kg/day; LOAEL (mouse [4]; systemic / pathology microscopic / adrenal gland / hyperplasia): 150 mg/kg/day; LEL (mouse [4]; [12]): 41 mg/kg/day; NEL (mouse [4]; [12]): < 41 mg/kg/day; NOAEL (mouse [4]; systemic / pathology microscopic / adrenal gland / hyperplasia + systemic / pathology microscopic / adrenal gland / adenoma + systemic / …): 41 mg/kg/day; LEL (rat [5]; [13]): 9.3 mg/kg/day; NEL (rat [5]; [13]): 1.9 mg/kg/day; NOAEL (rat [5]; [13]): 9.3 mg/kg/day; LOAEL (rat [5]; systemic / pathology microscopic / esophagus / hyperkeratosis + systemic / pathology microscopic / esophagus / hyperplasia + systemic / …): 54.9 mg/kg/day; LEL (rat [6]): 32.8 mg/kg/day; LOAEL (rat [6]): 32.8 mg/kg/day; NEL (rat [6]): 4.22 mg/kg/day; NOAEL (rat [6]): 4.22 mg/kg/day; LEL (rat [7]; [14]): 80 mg/kg/day; LOAEL (rat [7]; [14]): 80 mg/kg/day; NEL (rat [7]; [14]): 20 mg/kg/day; NOAEL (rat [7]; [14]): 20 mg/kg/day; LOAEL (rat [7]; [15]): 5 mg/kg/day; NOAEL (rat [7]; [15]): < 5 mg/kg/day; LEL (rat [7]; [16]): 5 mg/kg/day; NEL (rat [7]; [16]): < 5 mg/kg/day; LOAEL (rat [8]; group: developmental, developmental / developmental malformation / bone / [other] + developmental / developmental malformation / mouth / jaw / cleft palate + …): 100 mg/kg/day; LEL (rat [8]; [17]): 10 mg/kg/day; NEL (rat [8]; [17]): < 10 mg/kg/day; NOAEL (rat [8]; [17]): 30 mg/kg/day; LEL (rat [8]; [18]): 100 mg/kg/day; LOAEL (rat [8]; [18]): 100 mg/kg/day; NEL (rat [8]; [18]): 30 mg/kg/day; NOAEL (rat [8]; [18]): 30 mg/kg/day

From EPA's ToxRefDB 2
